From patent US11173151B2, “Substituted triazole derivatives and uses thereof” (BAYER AKTIENGESELLSCHAFT, priority 2017, dated 2021) come the findings set out here.

In one assay the target is T1, human V1a receptor (Homo sapiens, UniProt P37288).
T1 construct: expressed in transfected cells; host or cells: CHO K1 (ATCC), also stably transfected with a modified aequorin
As to the kind of experiment: Cellular in vitro assay for determining vasopressin receptor activity, V1a receptor cell line (CHO, aequorin luminescence). To be noted: for IC50: CHO cell line transfected with human V1a receptor, [Arg]-vasopressin at EC50 concentration, read-out: IC50 hV1a; for ratio IC50 hV2/hV1a: selectivity ratio IC50 hV2 / IC50 hV1a. The format is cell-based. The protocol:
(§1) B-1. Cellular In Vitro Assay for Determining Vasopressin Receptor Activity
(§2) The identification of agonists and antagonists of the V1a and V2 vasopressin receptors from humans, rats and dogs as well as the quantification of the activity of the compounds of the invention is carried out using recombinant cell lines. These cell lines originally derive from a hamster's ovary epithelial cell (Chinese Hamster Ovary, CHO K1, ATCC: American Type Culture Collection, Manassas, Va. 20108, USA). The test cell lines constitutively express the human, rat or dog V1a or V2 receptors. In case of the Gαq-coupled V1a receptors, cells are also stably transfected with a modified form of the calcium-sensitive photoproteins aequorin (human and rat V1a) or obelin (dog V1a), which, after reconstitution with the cofactor coelenterazine, emit light when there are increases in free calcium concentrations [Rizzuto R, Simpson A W, Brini M, Pozzan T, Nature 358, 325-327 (1992); Illarionov B A, Bondar V S, Illarionova V A, Vysotski E S, Gene 153 (2), 273-274 (1995)]. The resulting vasopressin receptor cells react to stimulation of the recombinantly expressed V1a receptors by intracellular release of calcium ions, which can be quantified by the resulting photoprotein luminescence. The Gs-coupled V2 receptors are stably transfected into cell lines expressing the gene for firefly luciferase under control of a CRE-responsible promoter. Activation of V2 receptors induces the activation of the CRE-responsive promoter via cAMP increase, thereby inducing the expression of firefly luciferase. The light emitted by photoproteins of V1a cell lines as well as the light emitted by firefly luciferase of V2 cell lines corresponds to the activation or inhibition of the respective vasopressin receptor. The bioluminescence of the cell lines is detected using a suitable luminometer [Milligan G, Marshall F, Rees S, Trends in Pharmacological Sciences 17, 235-237 (1996)].
Vasopressin V1a Receptor Cell Lines:
On the day before the assay, the cells are plated out in culture medium (DMEM/F12, 2% FCS, 2 mM glutamine, 10 mM HEPES, 5 μg/ml coelenterazine) in 384-well microtiter plates and kept in a cell incubator (96% humidity, 5% v/v CO2, 37° C.). On the day of the assay, test compounds in various concentrations are placed for 10 minutes in the wells of the microtiter plate before the agonist [Arg]-vasopressin at EC50 concentration is added. The resulting light signal is measured immediately in a luminometer.
(§3) Table 1A below lists individual IC50 values for the compounds of the invention (including racemic mixtures as well as separated enantiomers) that were obtained from cell lines transfected with the human V1a or V2 receptor: […]

Another assay concerns the target T2, human V2 receptor (Homo sapiens, UniProt P30518).
T2 construct: expressed in transfected cells; host or cells: CHO K1 (ATCC) expressing firefly luciferase under a CRE-responsive promoter
As to the kind of experiment: Cellular in vitro assay for determining vasopressin receptor activity, V2 receptor cell line (CHO, CRE-luciferase). It is filed as cell-based. To be noted: CHO cell line transfected with human V2 receptor; [Arg8]-vasopressin at EC50 concentration, 3 hours; read-out: IC50 hV2. The protocol:
as §1, §2
Vasopressin V2 Receptor Cell Lines:
On the day before the assay, the cells are plated out in culture medium (DMEM/F12, 2% FCS, 2 mM glutamine, 10 mM HEPES) in 384-well microtiter plates and kept in a cell incubator (96% humidity, 5% v/v CO2, 37° C.). On the day of the assay, test compounds in various concentrations and the agonist [Arg^8]-vasopressin at EC50 concentration are added together to the wells, and plates are incubated for 3 hours in a cell incubator. Upon addition of the cell lysis reagent Triton™ and the substrate luciferin, luminescence of firefly luciferase is measured in a luminometer.
as §3

T1 sequence (P37288 whole entry): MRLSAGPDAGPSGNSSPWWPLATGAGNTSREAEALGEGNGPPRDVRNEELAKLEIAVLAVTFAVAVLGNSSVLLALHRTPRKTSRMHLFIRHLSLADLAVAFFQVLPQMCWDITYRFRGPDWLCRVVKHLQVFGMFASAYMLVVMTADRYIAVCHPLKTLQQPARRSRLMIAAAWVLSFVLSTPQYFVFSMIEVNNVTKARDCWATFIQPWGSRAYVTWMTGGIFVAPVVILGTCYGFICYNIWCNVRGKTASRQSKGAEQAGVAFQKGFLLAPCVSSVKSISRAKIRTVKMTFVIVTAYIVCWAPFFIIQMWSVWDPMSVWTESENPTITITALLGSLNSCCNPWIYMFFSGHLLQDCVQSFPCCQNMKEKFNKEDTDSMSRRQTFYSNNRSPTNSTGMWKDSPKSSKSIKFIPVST
T2 sequence (P30518 whole entry): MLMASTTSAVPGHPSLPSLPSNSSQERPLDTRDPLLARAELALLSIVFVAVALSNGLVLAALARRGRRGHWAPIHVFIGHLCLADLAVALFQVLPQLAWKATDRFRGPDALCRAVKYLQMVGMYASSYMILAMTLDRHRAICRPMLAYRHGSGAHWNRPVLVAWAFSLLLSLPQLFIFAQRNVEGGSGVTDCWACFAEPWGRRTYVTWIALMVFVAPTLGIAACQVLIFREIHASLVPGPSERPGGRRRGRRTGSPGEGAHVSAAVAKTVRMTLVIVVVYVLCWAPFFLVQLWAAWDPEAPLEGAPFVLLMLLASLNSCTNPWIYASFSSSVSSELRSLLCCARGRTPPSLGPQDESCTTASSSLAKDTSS

One may read the IC50 as the midpoint of a concentration-inhibition curve. Consider `CN1CCC(N(C)C(=O)c2ccccc2-n2cnc(Cn3nc(-c4ccc(Cl)cc4)n(C[C@H](O)C(F)(F)F)c3=O)n2)C1` (mixture of isomers) [Example 274, 2-[3-({3-(4-Chlorophenyl)-5-oxo-4-[(2S)-3,3,3-trifluoro-2-hydroxypropyl]-4,5-dihydro-1H-1,2,4-triazol-1-yl}methyl)-1H-1,2,4-triazol-1-yl]-N-methyl-N-[1-methylpyrrolidin-3-yl]benzamide], for which the concentration for half-maximal inhibition (IC50) is 22 nM on human V1a receptor and 9650 nM on human V2 receptor. Besides, the “ratio IC50 hV2/hV1a” value at human V1a receptor is 438.6.
Taken in the same sequence, the figures for `CC1CCCN(C(=O)c2ccccc2-n2cnc(Cn3nc(-c4ccc(Cl)cc4)n(C[C@H](O)C(F)(F)F)c3=O)n2)C1C` (mixture of isomers) [Example 275, 5-(4-Chlorophenyl)-2-[(1-{2-[(2,3-dimethylpiperidin-1-yl)carbonyl]phenyl}-1H-1,2,4-triazol-3-yl)methyl]-4-[(2S)-3,3,3-trifluoro-2-hydroxypropyl]-2,4-dihydro-3H-1,2,4-triazol-3-one] were 2.55 nM, 1240 nM and 484.3.
Turning to `CC1C(=O)NCCN1C(=O)c1ccccc1-n1cnc(Cn2nc(-c3ccc(Cl)cc3)n(C[C@H](O)C(F)(F)F)c2=O)n1` (mixture of isomers) [Example 280, 4-{2-[3-({3-(4-Chlorophenyl)-5-oxo-4-[(2S)-3,3,3-trifluoro-2-hydroxypropyl]-4,5-dihydro-1H-1,2,4-triazol-1-yl}methyl)-1H-1,2,4-triazol-1-yl]benzoyl}-3-methylpiperazin-2-one], on human V1a receptor, the IC50 turned out to be 78.5 nM and the “ratio IC50 hV2/hV1a” value is recorded as 129.3. The IC50 at human V2 receptor stood at 10100 nM.
For `CC1COCCN1C(=O)c1ccccc1-n1cnc(Cn2nc(-c3ccc(Cl)cc3)n(C[C@H](O)C(F)(F)F)c2=O)n1` (mixture of isomers) [Example 282, 5-(4-Chlorophenyl)-2-{[1-(2-{[3-methylmorpholin-4-yl]carbonyl}phenyl)-1H-1,2,4-triazol-3-yl]methyl}-4-[(2S)-3,3,3-trifluoro-2-hydroxypropyl]-2,4-dihydro-3H-1,2,4-triazol-3-one] the same measures were 2.35 nM, 1000.0 and 2350 nM.
For `CC1CN(C(=O)c2ccccc2-n2cnc(Cn3nc(-c4ccc(Cl)cc4)n(C[C@H](O)C(F)(F)F)c3=O)n2)CCO1` (mixture of isomers) [Example 283, 5-(4-Chlorophenyl)-2-{[1-(2-{[2-methylmorpholin-4-yl]carbonyl}phenyl)-1H-1,2,4-triazol-3-yl]methyl}-4-[(2S)-3,3,3-trifluoro-2-hydroxypropyl]-2,4-dihydro-3H-1,2,4-triazol-3-one] the same measures were 6.05 nM, 1239.7 and 7500 nM.
Taken in the same sequence, the figures for `CC(O)CNC(=O)c1ccccc1-n1cnc(Cn2nc(-c3ccc(Cl)cc3)n(C[C@H](O)C(F)(F)F)c2=O)n1` (mixture of isomers) [Example 292, 2-[3-({3-(4-Chlorophenyl)-5-oxo-4-[(2S)-3,3,3-trifluoro-2-hydroxypropyl]-4,5-dihydro-1H-1,2,4-triazol-1-yl}methyl)-1H-1,2,4-triazol-1-yl]-N-[2-hydroxypropyl]benzamide] were 2.95 nM, 21.9 and 64.5 nM.
Turning to `O=C(NCC(O)CO)c1ccccc1-n1cnc(Cn2nc(-c3ccc(Cl)cc3)n(C[C@H](O)C(F)(F)F)c2=O)n1` (mixture of isomers) [Example 297, 2-[3-({3-(4-Chlorophenyl)-5-oxo-4-[(2S)-3,3,3-trifluoro-2-hydroxypropyl]-4,5-dihydro-1H-1,2,4-triazol-1-yl}methyl)-1H-1,2,4-triazol-1-yl]-N-[2,3-dihydroxypropyl]benzamide], at human V1a receptor, the IC50 is 5.05 nM and the “ratio IC50 hV2/hV1a” value was 277.2. For the same molecule, the IC50 at human V2 receptor was determined as 1400 nM.
For `O=C(c1ccccc1-n1cnc(Cn2nc(-c3ccc(Cl)cc3)n(C[C@H](O)C(F)(F)F)c2=O)n1)N1CCC(O)C1` (mixture of isomers) [Example 298, 5-(4-Chlorophenyl)-2-{[1-(2-{[3-hydroxypyrrolidin-1-yl]carbonyl}phenyl)-1H-1,2,4-triazol-3-yl]methyl}-4-[(2S)-3,3,3-trifluoro-2-hydroxypropyl]-2,4-dihydro-3H-1,2,4-triazol-3-one] the same measures were 3.3 nM, 468.2 and 1540 nM.
For `CC1CCCCC1NC(=O)c1ccccc1-n1cnc(Cn2nc(-c3ccc(Cl)cc3)n(C[C@H](O)C(F)(F)F)c2=O)n1` (mixture of isomers) [Example 319, 2-[3-({3-(4-Chlorophenyl)-5-oxo-4-[(2S)-3,3,3-trifluoro-2-hydroxypropyl]-4,5-dihydro-1H-1,2,4-triazol-1-yl}methyl)-1H-1,2,4-triazol-1-yl]-N-(2-methylcyclohexyl)benzamide] the same measures were 3.55 nM, 91.5 and 325 nM.
Taken in the same sequence, the figures for `CC1CC(C)CN(C(=O)c2ccccc2-n2cnc(Cn3nc(-c4ccc(Cl)cc4)n(C[C@H](O)C(F)(F)F)c3=O)n2)C1` (mixture of isomers) [Example 326, 5-(4-Chlorophenyl)-2-[(1-{2-[(3,5-dimethylpiperidin-1-yl)carbonyl]phenyl}-1H-1,2,4-triazol-3-yl)methyl]-4-[(2S)-3,3,3-trifluoro-2-hydroxypropyl]-2,4-dihydro-3H-1,2,4-triazol-3-one] were 8.3 nM, 180.7 and 1500 nM.
As to `CC1CCC(C)N1C(=O)c1ccccc1-n1cnc(Cn2nc(-c3ccc(Cl)cc3)n(C[C@H](O)C(F)(F)F)c2=O)n1` (mixture of isomers) [Example 328, 5-(4-Chlorophenyl)-2-[(1-{2-[(2,5-dimethylpyrrolidin-1-yl)carbonyl]phenyl}-1H-1,2,4-triazol-3-yl)methyl]-4-[(2S)-3,3,3-trifluoro-2-hydroxypropyl]-2,4-dihydro-3H-1,2,4-triazol-3-one], on human V1a receptor, the IC50 was 7.95 nM and the “ratio IC50 hV2/hV1a” value was determined as 270.4. For the same molecule, on human V2 receptor, the IC50 stood at 2150 nM.
For `CC1CCCC(C)N1C(=O)c1ccccc1-n1cnc(Cn2nc(-c3ccc(Cl)cc3)n(C[C@H](O)C(F)(F)F)c2=O)n1` (mixture of isomers) [Example 337, 5-(4-Chlorophenyl)-2-[(1-{2-[(2,6-dimethylpiperidin-1-yl)carbonyl]phenyl}-1H-1,2,4-triazol-3-yl)methyl]-4-[(2S)-3,3,3-trifluoro-2-hydroxypropyl]-2,4-dihydro-3H-1,2,4-triazol-3-one] the same measures were 23.5 nM, 46.2 and 1080 nM.
As to `CC(C)C(C)NC(=O)c1ccccc1-n1cnc(Cn2nc(-c3ccc(Cl)cc3)n(C[C@H](O)C(F)(F)F)c2=O)n1` (mixture of isomers) [Example 345, 2-[3-({3-(4-Chlorophenyl)-5-oxo-4-[(2S)-3,3,3-trifluoro-2-hydroxypropyl]-4,5-dihydro-1H-1,2,4-triazol-1-yl}methyl)-1H-1,2,4-triazol-1-yl]-N-[(2R)-3-methylbutan-2-yl]benzamide], on human V1a receptor, the IC50 was 3.2 nM and the “ratio IC50 hV2/hV1a” value was determined as 37.2. The IC50 on human V2 receptor turned out to be 119 nM.
